{"source": "patent US9776991B2", "about": "“Thienomethylpiperazine derivatives as inhibitors of soluble epoxide hydrolase” (SANOFI, priority 2013, dated 2017)", "data": [{"target": "recombinant sEH (soluble epoxide hydrolase, EPHX2) (Homo sapiens (Human), UniProt P34913)", "sequence (P34913 whole entry)": "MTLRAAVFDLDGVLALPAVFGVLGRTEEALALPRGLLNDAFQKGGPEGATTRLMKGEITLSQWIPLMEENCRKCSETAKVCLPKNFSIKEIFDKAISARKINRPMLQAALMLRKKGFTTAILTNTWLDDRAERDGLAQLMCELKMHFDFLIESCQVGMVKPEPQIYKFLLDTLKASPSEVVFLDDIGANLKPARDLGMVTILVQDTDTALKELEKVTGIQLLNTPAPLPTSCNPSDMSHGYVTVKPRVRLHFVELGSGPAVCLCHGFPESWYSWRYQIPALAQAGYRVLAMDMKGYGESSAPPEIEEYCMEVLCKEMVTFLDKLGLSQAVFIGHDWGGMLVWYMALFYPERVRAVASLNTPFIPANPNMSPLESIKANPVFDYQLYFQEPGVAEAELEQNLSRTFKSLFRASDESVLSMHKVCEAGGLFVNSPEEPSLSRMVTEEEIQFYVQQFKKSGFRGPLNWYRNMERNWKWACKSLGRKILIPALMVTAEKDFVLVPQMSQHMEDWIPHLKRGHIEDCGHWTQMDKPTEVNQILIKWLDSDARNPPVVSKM", "assay": "biochemical fluorometric sEH inhibition assay with Phome substrate", "conditions": "recombinant sEH purified from Sf9 insect cells, 2 nM sEH, 5 μM Phome, 60 minutes at 30° C.", "procedure,_shortened": "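Human sEH expressed in Sf9 cells (2 nM final) pre-incubated 15 min at 30 °C with compound (0.0001-10 μM), then 5 μM Phome added for 60 min at 30 °C in 25 mM Hepes with 0.01% albumin. Fluorescent 6-methoxy-2-naphthaldehyde read before substrate addition and at the end; IC50 from % inhibition.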", "units": {"IC50": "nM"}, "values": [{"smiles": "O=C(NCc1ccccc1C(F)(F)F)c1ccc(CN2CCN(C(=O)c3c(Cl)cccc3Cl)CC2)s1", "note": "[Example 81]", "IC50": 2.36}, {"smiles": "CCn1nc(C)c(Br)c1C(=O)N1CCN(Cc2ccc(C(=O)NCCC(C)C)s2)CC1", "note": "[Example 99]", "IC50": 1.53}, {"smiles": "COCc1cc(O)nc(N2CCN(Cc3ccc(C(=O)NCc4ccc(Cl)cc4Cl)s3)CC2)n1", "note": "[Example 21]", "IC50": 2.9}, {"smiles": "O=C(NCc1ccccc1OC(F)(F)F)c1ccc(CN2CCN(C(=O)C3COCCO3)CC2)s1", "note": "(stereo not shown) [Example 147]", "IC50": 1.96}, {"smiles": "COCC1(C(=O)N2CCN(Cc3ccc(C(=O)NCc4ccccc4OC(F)(F)F)s3)CC2)CC1", "note": "[Example 68]", "IC50": 1.19}, {"smiles": "CC1(C)OC(=O)CC1C(=O)N1CCN(Cc2ncc(C(=O)NCc3ccc(Cl)cc3Cl)s2)CC1", "note": "(stereo not shown) [Example 161]", "IC50": 6.11}, {"smiles": "CN1CC(C(=O)N2CCN(Cc3ncc(C(=O)NCc4ccc(Cl)cc4Cl)s3)CC2)CC1=O", "note": "(stereo not shown) [Example 197]", "IC50": 49.5}, {"smiles": "O=C(NCc1ccc(Cl)cc1Cl)c1cnc(CN2CCN(C(=O)C3CC3)CC2)s1", "note": "[Example 171]", "IC50": 15.8}, {"smiles": "Cn1ncc(N2CCN(Cc3ccc(C(=O)NCc4ccc(Cl)cc4Cl)s3)CC2)cc1=O", "note": "[Example 108]", "IC50": 2.15}, {"smiles": "Cc1c(C(=O)N2CCN(Cc3ccc(C(=O)NCCC(C)C)s3)CC2)oc2ccc(Br)cc12", "note": "[Example 12]", "IC50": 25.4}, {"smiles": "COc1ccc(CNC(=O)c2ccc(CN3CCN(c4ccccn4)CC3)s2)c(OC(F)(F)F)c1", "note": "[Example 124]", "IC50": 1.69}, {"smiles": "O=C(NCc1ccccc1C(F)(F)F)c1ccc(CN2CCN(C(=O)c3ccc4nccn4c3)CC2)s1", "note": "[Example 15]", "IC50": 0.604}, {"smiles": "COCCCC(=O)N1CCN(Cc2ccc(C(=O)NCc3ccccc3OC(F)(F)F)s2)CC1", "note": "[Example 140]", "IC50": 1.81}, {"smiles": "O=C(NCc1ccccc1C(F)(F)F)c1ccc(CN2CCN(C(=O)C3(c4ccccc4)CC3)CC2)s1", "note": "[Example 75]", "IC50": 2.55}, {"smiles": "CC(C(=O)N1CCN(Cc2ncc(C(=O)NCc3ccc(Cl)cc3Cl)s2)CC1)N1CCCC1=O", "note": "(stereo not shown) [Example 169]", "IC50": 8.76}, {"smiles": "O=C(NCc1ccccc1OC(F)(F)F)c1ccc(CN2CCN(C(=O)c3ccccn3)CC2)s1", "note": "[Example 121]", "IC50": 1.68}, {"smiles": "COc1ccc(CNC(=O)c2ccc(CN3CCN(c4ncccc4C)C(=O)C3)s2)c(OC(F)(F)F)c1", "note": "[Example 126]", "IC50": 1.75}, {"smiles": "O=C(NCc1ccc(Cl)cc1Cl)c1cnc(CN2CCN(C(=O)CN3CCCC3=O)CC2)s1", "note": "[Example 168]", "IC50": 77.9}, {"smiles": "CC(O)C(=O)N1CCN(Cc2ccc(C(=O)NCc3ccc(C#N)cc3Cl)s2)CC1", "note": "(stereo not shown) [Example 61]", "IC50": 1.18}, {"smiles": "N#CCC(=O)N1CCN(Cc2ncc(C(=O)NCc3ccc(Cl)cc3Cl)s2)CC1", "note": "[Example 195]", "IC50": 73.6}, {"smiles": "CC(C)(CO)C(=O)N1CCN(Cc2ncc(C(=O)NCc3ccc(Cl)cc3Cl)s2)CC1", "note": "[Example 176]", "IC50": 13.4}, {"smiles": "O=C(NCc1ccc(Cl)cc1Cl)c1ccc(CN2CCN(C(=O)Cc3cccc(C(F)(F)F)c3)CC2)s1", "note": "[Example 100]", "IC50": 2.3}, {"smiles": "O=C(NCc1ccccc1C(F)(F)F)c1ccc(CN2CCN(C(=O)c3ccccn3)CC2)s1", "note": "[Example 16]", "IC50": 0.534}, {"smiles": "COc1cc(CNC(=O)c2ccc(CN3CCN(C(=O)[C@H](O)C(C)C)CC3)s2)ccn1", "note": "[Example 30, 5-[4-((R)-2-Hydroxy-3-methyl-butyryl)-piperazin-1-ylmethyl]-thiophene-2-carboxylic acid (2-methoxy-pyridin-4-ylmethyl)-amide]", "IC50": 0.803}, {"smiles": "Cc1ccc(C(=O)N2CCN(Cc3ccc(C(=O)NCc4ccc(Cl)cc4Cl)s3)CC2)s1", "note": "[Example 154]", "IC50": 2.05}, {"smiles": "O=C(NCc1ccccc1OC(F)(F)F)c1ccc(CN2CCN(C(=O)C3CCOC3)CC2)s1", "note": "(stereo not shown) [Example 55]", "IC50": 1.05}, {"smiles": "CC(O)C(=O)N1CCN(Cc2ccc(C(=O)NCc3ccc(Cl)cc3Cl)s2)CC1", "note": "(stereo not shown) [Example 20]", "IC50": 0.539}, {"smiles": "Cc1cc(=O)oc(C)c1C(=O)N1CCN(Cc2ccc(C(=O)NCc3ccccc3OC(F)F)s2)CC1", "note": "[Example 150]", "IC50": 1.87}]}]}
